Assay results as given in patent publication US11219625B2, “Inhibitors of N-linked glycosylation and methods using same” (YALE UNIVERSITY, priority 2015, dated 2022).

Columns and labels:
OST = experiment: Free and peptide glycans in streptolysin-O permeabilized CHO cells; assay type: cell-based; settings: NGI-1 5 μM
Protocol: Fluorophore assisted carbohydrate electrophoresis (FACE) was performed as previously described (Gao, et al., Glycobiology 2002, 12, 353-360; Gao, et al., J Biol Chem 2005, 280, 17901-17909). Control (Ac-Gln-Tyr-Thr-CONH2) and acceptor (Ac-Asn-Tyr-Thr-CONH2) peptides were used for permeabilized cell experiments. Metabolic labeling of Hela cells, transfection of prosaposin (pSAP) and steroid hormone binding globulin (SHBG) vectors, and knockdown of SIT3A and STT3B to monitor N-linked glycosylation knockdown were performed as described (Shrimal, et al., J Cell Biol 2013, 201, 81-95). Western blot analysis was performed as previously described (Bennett, et al., Transl Oncol 2013, 6, 382-391). […]
The OST is an ER resident multi-subunit complex that cleaves LLOs and transfers the oligosaccharide to a protein encoded N-linked glycosylation consensus sequence (NXT/S). […] Both enzymatic products of the OST, free glycans and protein glycans, were therefore determined with and without NGI-1 treatment using optimized conditions in streptolysin-O permeabilized CHO cells (FIG. 2C). Addition of a control peptide without the N-linked glycosylation consensus sequence (QYT) led to readily detectable levels of free glycans (left panel), while addition of an acceptor peptide containing the consensus sequence (NYT) followed by PNGase treatment led to detection of cleaved peptide glycans (right panel). […]

N-linked glycosylation = experiment: D54-ERLucT cell based luciferase assay for inhibition of N-linked glycosylation
Source text: The HTS approach using the bioluminescent N-linked glycosylation reporter (CCR 2011) in D54-ERLucT and D54-LucT cells has been previously described (Bennett, et al., Transl Oncol 2013, 6, 382-391). Briefly, the primary cell-based screen detects site occupancy of NLG sequons using a modified luciferase protein translated into the ER. […] The methodology for the primary (D54-ERlucT), secondary (D54-LucT), and tertiary (luciferase inhibition) screens as well and toxicity assays with CelltitreGlo are deposited in Pubchem (AID 588693).
The primary screen was developed in the D54 glioma cell line using a modified P. pyralis luciferase gene (ER-LucT) that is ER translated and glycosylated at three N-linked glycosylation consensus sequences. Glycosylation of the reporter inactivates luciferase enzymatic activity providing a robust methodology to detect inhibition of this process. D54 cells expressing a non-ER translated luciferase (LucT) insensitive to inhibition of N-linked glycoysation were used as a secondary screen for false positives. The primary screen was performed in duplicate and values were normalized to the average of positive control wells (Tunicamycin) minus averaged neutral vehicle treated wells per run. Compounds with replicate activity greater than three standard deviations above the mean average of control wells were selected for further study. A subset of 1,845 compounds met this criterion, and were advanced to simultaneous retesting in both the primary screen and a secondary (false positive) cell-based screen. […] Compounds were further triaged from consideration by consulting the Pubchem bioassay database and deprioritizing compounds showing a promiscuity rate higher than 5% across assays or by removing PAINS scaffolds (Baell, et al., J Med Chem 2010, 53, 2719-2740). Remaining compounds were assessed by medicinal chemistry review to score synthetic tractability and known issues with instability, poor solubility, or toxicity. This analysis yielded 39 compounds that were tested in a cell-free assay to detect luciferase inhibitors (Auld, et al., Proc Natl Acad Sci USA 2010, 107, 4878-4883) and by western blot analysis to detect gel mobility changes of the luciferase reporter, consistent with inhibition of N-linked glycosylation. This approach identified one aminobenzamidosulfonamide compound that blocked N-linked glycosylation.
To better understand the connection between structure and activity, analogs were prepared and tested in the D54-ERLucT cell based assay for inhibition of N-linked glycosylation (FIG. 1B). The assay was used to estimate and compare AC40 values among analogs and to guide the design of improved compounds that inhibited N-linked glycosylation. This effort generated 36 unique compounds with modifications to the amine component of the sulfonamide functionality (red), the pyrrolidine moiety (blue) or the methylaminothiazole group (green). Generally, incorporation of larger sulfonamides (i.e., larger secondary amines appended to the sulphone) was not well tolerated, resulting in erosion of potency (7 analogs). However, steric interactions could be mitigated by the introduction of a hydrogen bond accepting oxygen in a larger cyclic amine. Thus, morpholine was determined to be an acceptable surrogate for the dimethylamine component of the sulfonamide (FIGS. 1A-1D). The pyrrolidine group (blue) was replaced with various alkyl, cycloalkyl, and amine groups (7 compounds). The aminothiazole moiety was derivatized most extensively of all three regions (green highlighted area, 22 analogs). […] Analogs with the highest potency in the luciferase assay were retested with western blot analysis to insure that measurements of luciferase activation corresponded to loss of N-linked glycosylation.

[1] = D54-ERLucT cells, luciferase activation

Cc1cnc(NC(=O)c2cc(S(=O)(=O)N(C)C)ccc2N2CCCC2)s1 [NGI-1, 5-(N,N-Dimethylsulfamoyl)-N-(5-methylthiazol-2-yl)-2-(pyrrolidin-1-yl)benzamide]
production of free glycans and cleaved peptide glycans (OST): substantially reduced the production of both free and cleaved glycans
NLG Inhibition ASSAY Potency Mean AC40 (N-linked glycosylation; [1]): 0.17 µM
NLG Inhibition max act, % (N-linked glycosylation; [1]): 321.4%
IC50 (N-linked glycosylation; luminescent activity, estimated, FIG. 1C, read-out: IC50 in intact D54 ER-LucT cells in culture): 1.06 µM
